For assay [1], the system named is ASMase. The assay is described as follows: ASMase activity radioenzymatic assay in BAEC. It is filed as cell-based, bovine. On the procedure:
BAEC were established from the intima of bovine aorta as described^1. Stock cultures were grown in 100-mm dishes in Dulbecco's modified Eagle's medium (DMEM) supplemented with glucose (1 g/liter), 5% heat-inactivated calf serum (CS), penicillin (50 units/ml), and streptomycin (50 μg/ml). Purified human recombinant bFGF (1 ng/ml; R&D Systems, Inc., Minneapolis, MN) was added every other day during the exponential growth phase. […] These plateau phase cells were either used for experiments, or further sub-cultured (up to a maximum of 10 times) at a split ratio of 1:8. For sub-culturing, monolayers were dissociated with STV (0.05% trypsin and 0.02% EDTA in PBS) for 2-3 min at 22° C., washed twice in 5% CS-DMEM, and resuspended in DMEM with supplements as above. These mild conditions of trypsinization were sufficient to detach cells but not injure, stimulate, or affect cell function in a detectable way. BAEC were maintained at 37° C. in 10% CO2 humidified incubators.
ASMase activity was quantified by radioenzymatic assay using [^14C-methylcholine]sphingomyelin (Amersham) as substrate as described (Schissel et al. J Biol Chem, 271, 18431-18436, 1996). Cell lysates were incubated with [^14C-methylcholine]-sphingomyelin substrate (0.026 mCi/9.5 nmol) in 250 mM sodium acetate, pH 5.0 supplemented with 0.1% Triton X-100 and 1 mM EDTA or 0.1 mM ZnCl. Reactions were terminated after 1 h with CHCl3:MeOH:1N HCl (100:100:1, v/v/v), and [^14C-methylcholine]phosphocholine product in the aqueous layer of the Folch extract was quantified using a Beckman Packard 2200 CA Tricarb scintillation counter. For detection of ASMase activity in patients, 10 μl of serum was used.
To test the effect of chemotherapy on ASMase signaling and ceramide production, BAEC were treated with paclitaxel (100 nM) and ASMase activity was determined by radioenzymatic assay (Rotolo et al, infra) using [^14C-methylcholine] sphingomyelin (Amersham) as substrate (FIG. 1A). Induction of ASMase activity was observed within 5 minutes after treatment, and the activation continued for 30 minutes. Ceramide generation was monitored using the diacylglycerol kinase assay (Stancevic et al. PLoS ONE 8, e69025, 2013). […] In further support of this, pre-incubation of BAEC with nystatin prior to treatment with chemotherapy inhibits chemotherapy-induced apoptosis (FIG. 3).
To determine the generality of the results observed, experiments were carried out using an additional endothelial cell line, human coronary artery endothelial cells (HCAEC); experiments were also performed using a different chemotherapeutic agent. […] Next, HCAEC were treated with paclitaxel (100 nM) (data not shown) and etoposide (50 μM) (FIG. 1F), and ceramide generation was evaluated.
To further establish the generality of ASMase activation by various chemotherapeutic agents, BAEC and HCAEC were treated with increasing doses of cisplatin (0.1-50 μM) (data not shown). […] The ASMase/ceramide pathway was activated by chemotherapeutic agents that belong to different classes of chemotherapeutic agents, such as: taxanes, topoisomerase inhibitors, and nucleoside analog metabolic inhibitors. Since such chemotherapy agents are characterized by distinct mechanisms of action in tumor cells, it is surprising that a group of such distinct agents converges on a common molecular (ASMase/ceramide) axis in endothelium. The present confirmation that distinct chemotherapeutic agents activate the ASMase/ceramide pathway permits the present inventors to take into account the results of experiments using single dose radiotherapy, which has been reported to activate the same pathway (Rao, S. S. et al., Axitinib sensitization of high Single Dose Radiotherapy. Radiotherapy and Oncology: Journal of the European Society for Therapeutic Radiology and Oncology 111, 88-93, doi:10.1016/j.radonc.2014.02.010 (2014)).
Gemcitabine was able to activate ASMase in cultured endothelial cells. […]

In assay [2] the test system is HCT116 tumors. The assay is described as follows: Tumor response in vivo, HCT116 tumors. Also on record: species or system mice. The procedure: Human HCT-116 colon cancer cells and MCA/129 murine sarcoma cells were maintained in DMEM with 10% fetal bovine serum, with 100 u/ml penicillin and 100 μg/ml streptomycin. Cells were grown as monolayers in 75 cm^2 culture flasks at 37° C. in 10% CO2 humidified incubators. Cells were trypsinized, washed in PBS and diluted in Matrigel/PBS solution (40:60 v/v) for HCT-116 xenografts or in PBS for MCA/129 syngeneic tumor grafts. Cells (3×10^6 for HCT-116 or 1×10^6 for MCA129) were injected subcutaneously into the flanks of mice (Garcia-Barros et al. Science 300, 1155-1159, 2003).
SCID^asmase+/+ and SCID^asmase−/− mice harboring HCT-116 tumors (50-100 mm^3) were treated with three i.p. injections of 35-50 mg/kg etoposide (Novaplus®), or 15-25 mg/kg paclitaxel (Hospira), or 1-6 mg/kg cisplatin (APP Pharmaceuticals, LLC) in a bi-weekly schedule with or without i.v. DC101 (1600 μg/25 gm mouse), or control IgG. For sarcoma studies, Sv129/Bl6 mice harboring MCA/129 tumors (100-150 mm^3) were treated with three i.p. injections of 240 mg/kg gemcitabine on a bi-weekly schedule with or without i.v. DC-101. Tumor volume, based on caliper measurements (length and width in millimeters), was calculated daily using the following formula: 0.5×length×width^2.
Tumor response to chemotherapy in the colorectal HCT116 xenograft model was evaluated. SCID^asmase+/+ or SCID^asmase−/− mice harboring HCT116 tumors (50-70 mm^3) were treated with paclitaxel (15/20/25 mg/kg i.p.) three times biweekly. […] To test that the ASMase requirement is mediated by the generation of ceramide, SCID^asmase+/+ mice harboring tumors as in FIG. 5A were treated with etoposide (35/35/50 mg/kg i.p.) biweekly in the presence of anti-ceramide or isotype control antibody.
To further test the ability of cisplatin to affect endothelial cell apoptosis and tumor response in vivo, effects of cisplatin on tumor growth were evaluated.
Thus, to further explore the notion of endothelial ASMase signaling requirement in response to chemotherapy, DC101 was used in combination with paclitaxel treatment.

The values that follow come from US12036212B2, “Enhancement of tumor response to chemotherapy by activation of the asmase/ceramide pathway through timed administration of a short-acting anti-angiogenic agent” (Memorial Sloan-Kettering Cancer Center, priority 2014, dated 2024).

On to `CC(=O)O[C@H]1C(=O)[C@@]2(C)[C@H]([C@H](OC(=O)c3ccccc3)[C@]3(O)C[C@H](OC(=O)[C@H](O)[C@@H](NC(=O)c4ccccc4)c4ccccc4)C(C)=C1C3(C)C)[C@]1(OC(C)=O)CO[C@@H]1C[C@@H]2O` [paclitaxel], for which, in assay [1] (paclitaxel 100 nM), the “ASMase activation continued for” value was 30 min and the “Induction of ASMase activity, time after treatment” value was at most 5 min. For the same compound, the “Tumor response, agent alone” value in assay [2] (SCID asmase+/+, 3×15 mg/kg paclitaxel or 1600 μg DC101 alone) is given as “slightly affected”. The “Complete tumor response after” value in assay [2] (SCID asmase+/+, paclitaxel 15/20/25 mg/kg i.p. three times biweekly) stood at 10 ± 1 days. Besides, the Tumor response entry in assay [2] (SCID asmase−/−, paclitaxel 15/20/25 mg/kg i.p. three times biweekly) is on record as “no significant tumor response”.

`N.N.[Cl][Pt][Cl]` [cisplatin]: the ASMase activation entry in assay [1] (etoposide 50 μM, cisplatin 0.1-50 μM, gemcitabine 100 nM time-course) was “failed to activate ASMase”. Also, the Tumor growth delay result in assay [2] (cisplatin 3×6 mg/kg) is “did not induce significant HCT116 tumor growth delay”.
